Source: patent publication US6369030B1, “Inhibitors of histone acetyltransferases (HATs) and uses thereof” (The Rockfeller University, priority 1999, dated 2002)
pIC50: −log10 of the molar value. “And” between values parts separate entries of the source, which are not always exact repeats. Equal values may be shown once. Read-outs that look alike come from different tables or passages of the source. Residues, ends and D or L forms follow the SMILES beside them. *: point of attachment. CoASCH2CO = CC(C)(COP(=O)(O)OP(=O)(O)OC[C@H]1O[C@@H](n2cnc3c(N)ncnc32)[C@H](O)[C@@H]1OP(=O)(O)O)[C@@H](O)C(=O)NCCC(=O)NCCSCC(=O)*

Assays:
p300 [1] = molecular target: T1, p300 (Homo sapiens, UniProt Q09472); experiment: HAT activity inhibition assay, p300, mixed histones as substrate; format: biochemical
T1 construct: Full length PCAF and p300 proteins were prepared and purified according to previously described methods; made in house
Experimental: (§1) Screening of the peptide CoA conjugate for inhibition of HAT activity of PCAF and p300 was carried out according to standard HAT assay procedures (Ogryzko et al., 1996; Yang et al., 1996; Schiltz et al., 1999) using commercially available mixed calf histone substrates. […] Full length PCAF and p300 proteins were prepared and purified according to previously described methods (Schiltz et al., 1999). HAT inhibition assay procedures were adapted from previously described methods (gryzko et al., 1996; Yang et al., 1996; Schiltz et al., 1999). Briefly, substrate concentrations were 10 μM acetyl-CoA (NEN, ^14C, 0.02 μCi/μL), 33 μg/mL mixed histones (Boehringer); buffer conditions-50 mM Tris-HCl (pH 8), 10 mM sodium butyrate 1 mM phenylmethyl sulfonyl fluoride, 1 mM dithiothreitol, 0.1 mM N,N,N′,N′-ethylenediamine tetraacetic acid and 10% v/v glycerol. Reactions employed purified recombinant p300 and PCAF (Schiltz et al., 1999) at concentrations of 6 nM and 27 nM, respectively. A range of at least 5 inhibitor concentrations were used. Assays were carried out in 0.5 mL plastic tubes at 30° C. and the reaction volumes were 30 μL. Reactions were initiated with the radioactive acetyl-CoA (4 μL) after allowing the enzyme/buffer/histone/inhibitor mixture to equilibrate at 30° C. for 10 min, and reactions quenched after 1 min with 7.5 μL 5×SDS gel load. Mixtures were run out on 15% SDSPAGE visualized with Coomassie blue, dried, and radioactivity quantified by phosphorimage analysis (Molecular Dynamics). In all cases, background acetylation (in the absence of enzyme) was subtracted from the total signal.

PCAF [2] = molecular target: T2, PCAF (Homo sapiens, UniProt Q92831); experiment: HAT activity inhibition assay, PCAF, mixed histones as substrate; format: biochemical; details: for pIC50: [acetyl-CoA]=10 M, [mixed histones]=33 μg/mL, standard errors estimated ±20%
T2 construct: Full length PCAF and p300 proteins were prepared and purified according to previously described methods; made in house
Experimental: as §1

p300 [3] = molecular target: T1, p300; experiment: HAT inhibition assay, p300, nucleosomes as substrate; format: biochemical; details: inhibitor 20 μM
Experimental: (§2) Full length PCAF and p300 proteins were prepared and purified according to previously described methods (Schiltz et al., 1999). HAT inhibition assay procedures were adapted from previously described methods (gryzko et al., 1996; Yang et al., 1996; Schiltz et al., 1999). […] Reactions employed purified recombinant p300 and PCAF (Schiltz et al., 1999) at concentrations of 6 nM and 27 nM, respectively. A range of at least 5 inhibitor concentrations were used. Assays were carried out in 0.5 mL plastic tubes at 30° C. and the reaction volumes were 30 μL. Reactions were initiated with the radioactive acetyl-CoA (4 μL) after allowing the enzyme/buffer/histone/inhibitor mixture to equilibrate at 30° C. for 10 min, and reactions quenched after 1 min with 7.5 μL 5×SDS gel load. Mixtures were run out on 15% SDSPAGE visualized with Coomassie blue, dried, and radioactivity quantified by phosphorimage analysis (Molecular Dynamics). In all cases, background acetylation (in the absence of enzyme) was subtracted from the total signal.
(§3) 3) FIG. 3. Assessment of p300 and PCAF HAT Activities in p300/PCAF Mixtures. (A) p300 and PCAF HAT activities with mixed histones as substrates.

PCAF [4] = molecular target: T2, PCAF; format: biochemical; details: nucleosomes as substrate, inhibitor 20 μM
Experimental: as §2, §3

[5] = system: p300 and acetyl-CoA dependent transcription from chromatin template; experiment: In vitro chromatin-template transcription dependent on p300 HAT activity; format: biochemical, human
Experimental: (§4) FIG. 4B and C: Transcription from naked DNA and chromatin templates. DNA (28 ng) and freshly assembled chromatin templates (with an equivalent amount of DNA) were incubated with or without activator, Gal4-VP16 (30 ng) for 20 min at 30° C.; 25 ng of baculovirus expressed, highly purified p300 (full length) and 1.5 μM of acetyl-CoA were added as indicated. Following the addition of nuclear extract (source of general transcription factors) and NTPs, transcription reactions were incubated and processed as described.
The chromatin template was reconstituted by incubation of purified proteins (HeLa core histones, NAP1 and rh TopoI) with a 5.4 kb plasmid (p20855G5MLC2AT) that contains a 690 bp promoter region (5 Gal4 binding sites and the adenovirus major late promoter with a G-less cassette) flanked on both sides by the 5 nucleosome positioning sequence from the sea urchin 55 rRNA gene (Cote et al., 1995). Assembled chromatin was structurally characterized by supercoiling and micrococcal nuclease (MNase) assay (data not shown).
Chromatin template for transcription studies were assembled on a ˜5.4 kb plasmid (p2085S G5MLC2AT) with purified human core histones, rh TpopI, and NAP1 as described (T. K. K. et al., manuscript in preparation). Prior to use in the transcription experiment, assembled, chromatin was subjected to supercoiling and Mnase assay. […]

naked DNA transcription = experiment: In vitro transcription from naked DNA template; format: biochemical; details: 10 μM inhibitor; average of 4 independent experiments
Experimental: as §4
Recombinant His6-tagged nucleosome assembly protein 1 (NAP1) and transcription activator Gal4-VP16 were expressed in E. coli and purified with nitrilloacetic acid-agarose (Qiagen) as specified by the manufacturer. […] In vitro transcription assays were carried out in 50 μL reaction mixtures containing either 28 ng of DNA or an equivalent amount of chromatin.
(A) Outline of the in vitro transcription protocol. (B) and (C) Transcription form naked DNA and chromatin templates. DNA (28 ng) and freshly assembled chromatin templates (with an equivalent amount of DNA) were incubated with or without activator, Gal4-VP16 (30 ng) for 20 min at 30°, 25 ng of baculovirus expressed, highly purified p300 (full length) and 1.5 μM of acetyl-CoA were added as indicated. […]

[6] = [acetyl-CoA]=10 M, [mixed histones]=33 μg/mL, standard errors estimated ±20%, read-out: IC50 with p300
[7] = mixed histones, individual enzyme, inhibitor 20 μM

T1 sequence (Q09472 whole entry): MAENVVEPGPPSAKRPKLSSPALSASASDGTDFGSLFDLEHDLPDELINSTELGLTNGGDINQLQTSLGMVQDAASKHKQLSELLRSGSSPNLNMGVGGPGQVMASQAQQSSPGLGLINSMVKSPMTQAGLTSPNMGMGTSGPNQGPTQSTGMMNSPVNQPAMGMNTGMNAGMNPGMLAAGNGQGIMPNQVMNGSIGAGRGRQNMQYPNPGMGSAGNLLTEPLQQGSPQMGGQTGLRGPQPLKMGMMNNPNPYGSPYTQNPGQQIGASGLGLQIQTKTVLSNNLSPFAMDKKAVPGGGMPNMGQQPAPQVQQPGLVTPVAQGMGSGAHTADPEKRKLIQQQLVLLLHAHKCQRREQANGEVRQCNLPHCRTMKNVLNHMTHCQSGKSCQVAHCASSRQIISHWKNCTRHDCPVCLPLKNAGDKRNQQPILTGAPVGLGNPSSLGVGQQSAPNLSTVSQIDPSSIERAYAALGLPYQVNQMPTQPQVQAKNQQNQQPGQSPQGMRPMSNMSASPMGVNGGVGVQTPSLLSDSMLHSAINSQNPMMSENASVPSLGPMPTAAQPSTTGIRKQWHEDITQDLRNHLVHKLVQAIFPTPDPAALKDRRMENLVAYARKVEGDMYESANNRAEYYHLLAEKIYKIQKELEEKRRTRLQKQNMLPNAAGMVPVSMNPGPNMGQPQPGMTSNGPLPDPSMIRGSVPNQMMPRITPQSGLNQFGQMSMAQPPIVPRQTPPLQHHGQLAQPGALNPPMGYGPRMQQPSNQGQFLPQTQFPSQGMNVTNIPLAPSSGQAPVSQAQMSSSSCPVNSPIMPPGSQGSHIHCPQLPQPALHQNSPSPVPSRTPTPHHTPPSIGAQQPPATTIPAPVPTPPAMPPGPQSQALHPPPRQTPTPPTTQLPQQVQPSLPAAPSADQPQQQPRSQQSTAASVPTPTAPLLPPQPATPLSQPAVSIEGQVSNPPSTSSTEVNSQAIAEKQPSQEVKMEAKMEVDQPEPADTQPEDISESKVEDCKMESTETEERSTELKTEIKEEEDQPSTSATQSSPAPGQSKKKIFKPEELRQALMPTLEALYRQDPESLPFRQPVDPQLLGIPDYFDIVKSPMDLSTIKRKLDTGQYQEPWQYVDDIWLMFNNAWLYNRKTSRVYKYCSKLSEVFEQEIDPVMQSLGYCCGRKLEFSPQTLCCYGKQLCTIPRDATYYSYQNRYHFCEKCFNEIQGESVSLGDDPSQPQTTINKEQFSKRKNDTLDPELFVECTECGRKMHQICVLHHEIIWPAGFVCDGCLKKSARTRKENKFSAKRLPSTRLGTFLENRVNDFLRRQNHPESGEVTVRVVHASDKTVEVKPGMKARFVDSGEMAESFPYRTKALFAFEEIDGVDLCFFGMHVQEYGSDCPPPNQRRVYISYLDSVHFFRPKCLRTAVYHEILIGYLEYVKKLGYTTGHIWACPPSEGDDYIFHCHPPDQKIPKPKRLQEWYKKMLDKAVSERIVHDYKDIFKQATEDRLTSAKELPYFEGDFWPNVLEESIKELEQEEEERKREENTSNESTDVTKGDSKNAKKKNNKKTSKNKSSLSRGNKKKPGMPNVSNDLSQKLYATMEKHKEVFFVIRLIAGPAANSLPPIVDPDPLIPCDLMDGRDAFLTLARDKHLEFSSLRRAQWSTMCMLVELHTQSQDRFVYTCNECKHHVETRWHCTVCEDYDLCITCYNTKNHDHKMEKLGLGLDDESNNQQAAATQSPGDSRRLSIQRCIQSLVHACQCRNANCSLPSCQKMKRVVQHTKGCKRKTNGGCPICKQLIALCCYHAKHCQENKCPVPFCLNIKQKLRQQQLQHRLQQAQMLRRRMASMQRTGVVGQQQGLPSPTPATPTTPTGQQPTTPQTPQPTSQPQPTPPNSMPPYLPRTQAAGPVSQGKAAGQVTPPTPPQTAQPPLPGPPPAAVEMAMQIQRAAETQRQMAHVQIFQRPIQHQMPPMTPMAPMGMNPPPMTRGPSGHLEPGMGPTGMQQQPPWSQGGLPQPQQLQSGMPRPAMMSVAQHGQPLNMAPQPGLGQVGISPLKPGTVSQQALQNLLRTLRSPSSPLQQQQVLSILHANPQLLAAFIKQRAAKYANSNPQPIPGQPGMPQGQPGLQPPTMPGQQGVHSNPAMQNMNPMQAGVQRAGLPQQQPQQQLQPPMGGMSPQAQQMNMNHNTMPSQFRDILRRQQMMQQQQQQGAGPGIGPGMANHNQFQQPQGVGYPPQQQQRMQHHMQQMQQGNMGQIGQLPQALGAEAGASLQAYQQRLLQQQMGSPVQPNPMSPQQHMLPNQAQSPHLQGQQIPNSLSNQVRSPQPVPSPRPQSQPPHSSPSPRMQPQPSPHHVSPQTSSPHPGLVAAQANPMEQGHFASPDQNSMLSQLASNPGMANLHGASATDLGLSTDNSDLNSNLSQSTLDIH
T2 sequence (Q92831 whole entry): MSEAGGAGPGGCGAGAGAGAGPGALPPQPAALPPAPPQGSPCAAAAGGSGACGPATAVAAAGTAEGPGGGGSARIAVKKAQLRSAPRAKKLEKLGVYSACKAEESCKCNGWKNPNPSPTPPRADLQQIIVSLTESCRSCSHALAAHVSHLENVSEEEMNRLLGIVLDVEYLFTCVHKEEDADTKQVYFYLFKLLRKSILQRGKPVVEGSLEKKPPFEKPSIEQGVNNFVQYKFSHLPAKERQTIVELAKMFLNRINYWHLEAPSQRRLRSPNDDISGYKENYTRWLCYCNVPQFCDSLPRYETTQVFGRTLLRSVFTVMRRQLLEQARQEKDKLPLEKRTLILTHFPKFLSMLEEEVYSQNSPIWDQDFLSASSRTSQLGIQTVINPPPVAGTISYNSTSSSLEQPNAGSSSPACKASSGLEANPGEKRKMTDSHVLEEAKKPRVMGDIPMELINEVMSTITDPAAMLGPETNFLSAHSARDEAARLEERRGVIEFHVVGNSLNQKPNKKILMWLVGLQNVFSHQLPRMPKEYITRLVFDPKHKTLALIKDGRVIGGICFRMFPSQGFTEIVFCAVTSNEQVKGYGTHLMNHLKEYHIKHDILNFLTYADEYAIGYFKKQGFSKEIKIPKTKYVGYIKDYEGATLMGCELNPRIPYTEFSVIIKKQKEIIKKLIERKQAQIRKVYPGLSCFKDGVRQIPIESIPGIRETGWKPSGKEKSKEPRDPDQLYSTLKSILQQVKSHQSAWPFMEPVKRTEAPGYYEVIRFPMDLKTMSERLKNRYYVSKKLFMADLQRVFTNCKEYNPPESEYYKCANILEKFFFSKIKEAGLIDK

SMILES | selectivity in blocking p300 HAT activity (versus PCAF) (p300 [1]) | pIC50 (p300 [1]; [6]) | pIC50 (p300 [1]; mixed calf histone substrates, read-out: IC50 of p300 acetyltransferase activity) | p300 HAT activity blocked (p300 [1]; [7]) | pIC50 (PCAF [2]) | inhibition with PCAF (PCAF [2]; [7]) | p300 inhibition (nucleosome acetylation) (p300 [3]) | PCAF inhibition (nucleosome acetylation) (PCAF [4]) | transcriptional activation from chromatin template in the presence of p300-PCAF mixtures ([5]; p300-PCAF mixtures, data not shown) | inhibition of p300 and acetyl-CoA dependent transcription activation from the chromatin template ([5]; p300 preincubated with 10 μM inhibitor) | inhibition of naked DNA transcription (naked DNA transcription) | inhibition of p300 HAT activity, in words (p300 [1]; mixed histones) | inhibition of PCAF HAT activity, in words (PCAF [2]; mixed histones)
CC(=O)N[C@@H](CCCCNC(=O)CSCCNC(=O)CCNC(=O)[C@H](O)C(C)(C)COP(=O)(O)OP(=O)(O)OC[C@H]1O[C@@H](n2cnc3c(N)ncnc32)[C@H](O)[C@@H]1OP(=O)(O)O)C(N)=O [Lys-CoA] | ~200 fold | ~6.30 and 6.30 | ~6.30 | greater than 90% | ~3.70 | less than 10% | greater than 90% | less than 10% | abolished transcriptional activation | completely abolished | 15-20% | – | –
CC(C)(COP(=O)(O)OP(=O)(O)OC[C@H]1O[C@@H](n2cnc3c(N)ncnc32)[C@H](O)[C@@H]1OP(=O)(O)O)[C@@H](O)C(=O)NCCC(=O)NCCS [CoASH, reference compound] | – | – | – | – | < 4.70 | – | – | – | – | – | – | Neither the H3-20 peptide (which lacked CoA attachment) nor CoASH itself were potent HAT inhibitors | Neither the H3-20 peptide (which lacked CoA attachment) nor CoASH itself were potent HAT inhibitors
CC(=O)NCC(=O)NCC(=O)N[C@@H](CCCCNC(=O)CSCCNC(=O)CCNC(=O)[C@H](O)C(C)(C)COP(=O)(O)OP(=O)(O)OC[C@H]1O[C@@H](n2cnc3c(N)ncnc32)[C@H](O)[C@@H]1OP(=O)(O)O)C(=O)N[C@@H](C)C(=O)N1CCC[C@H]1C(=O)N[C@@H](CCCNC(=N)N)C(=O)N[C@@H](CCCCN)C(N)=O [Compound H3-CoA-7] (Ac-GGK(CoASCH2CO)APRK-NH2) | – | < 4.52 | – | – | < 4.70 | – | – | – | – | – | – | – | not achieved
